For 12 compounds, IC50 results are on record in US12435092B2, “Substituted imidazo[1,2-A]quinazolines as inhibitors of PARG” (858 Therapeutics, Inc., priority 2022, dated 2025).

The target of this test is T1, cellular PARG (Homo sapiens, UniProt Q86W56).
T1 construct: endogenous in cells; host or cells: HeLa
Briefly: Nuclear PAR accumulation assay (immunofluorescence high-content imaging). The format is cell-based. Conditions: HeLa cells, 1 hour compound treatment then MMS 50 μg/mL for an additional hour. Here is the method:
Compound IC50 values for inhibition of cellular PARG were determined using an immunofluorescence high-content imaging assay for nuclear PAR accumulation. HeLa cells were plated at 15,000 cells/well in a 96-well plate the day before compound treatment and then treated with varying concentrations of test compound and incubated for 1 hour at 37° C.+5% CO2. Following test compound treatment, methylmethane sulfonate (MMS) was added to a final concentration of 50 μg/mL and the cells were incubated for an additional hour. Following treatment, the cells were fixed with ice cold 95% methanol and the plates sealed and placed at −20° C. for 15 minutes. The cells were then washed once with phosphate buffered saline (PBS) and permeabilized with 0.1% Triton-X 100 for 20 minutes at room temperature. The cells were again washed once with PBS and incubated with an anti-poly-ADP ribose (PAR) monoclonal antibody (Millipore Part #AM80 clone 10H) diluted 1:1,000 in 5% fetal bovine serum +0.1% Tween-20+PBS overnight at 4° C. The cells were then washed three times with PBS before incubation with a fluorescently conjugated goat anti-mouse antibody (Invitrogen A32723) diluted 1:500 in 5% FBS+0.1% Tween-20+PBS for 1 hour at room temperature. The cells were again washed three times with PBS and the nuclei labeled by incubating with 1 μg/mL DAPI (4′,6-diamidino-2-phenylindole). Nuclear PAR accumulation was evaluated using high-content fluorescence microscopy. Four fields for each well were acquired at 20× magnification resulting in at least 1,000 cells analyzed per well. Using high-content software (CellReporterXpress) the nuclei were detected and segmented using the DAPI channel and the fluorescence intensity of the PAR-Alexa 488 channel was quantified within the nuclei regions. Both the average intensity per nucleus and percent PAR positive cells were quantified. Percent PAR positive cells were identified by having greater anti-PAR labeling above the threshold set with vehicle DMSO treated control cells. Percent inhibition of PARG by test compounds was calculated by normalizing the data to the 0.1% DMSO and reference compound control values, which represent 0% and 100% inhibition of enzymatic activity, respectively. Concentration-response-curves and IC50 values were generated using four parameter logistic curve fit software.

Bounds are passed on as bounds.

The IC50 is the concentration that gives 50% inhibition. The low end stands for greater potency in that assay, the high end for weaker potency in that assay.

T1 sequence (Q86W56 whole entry): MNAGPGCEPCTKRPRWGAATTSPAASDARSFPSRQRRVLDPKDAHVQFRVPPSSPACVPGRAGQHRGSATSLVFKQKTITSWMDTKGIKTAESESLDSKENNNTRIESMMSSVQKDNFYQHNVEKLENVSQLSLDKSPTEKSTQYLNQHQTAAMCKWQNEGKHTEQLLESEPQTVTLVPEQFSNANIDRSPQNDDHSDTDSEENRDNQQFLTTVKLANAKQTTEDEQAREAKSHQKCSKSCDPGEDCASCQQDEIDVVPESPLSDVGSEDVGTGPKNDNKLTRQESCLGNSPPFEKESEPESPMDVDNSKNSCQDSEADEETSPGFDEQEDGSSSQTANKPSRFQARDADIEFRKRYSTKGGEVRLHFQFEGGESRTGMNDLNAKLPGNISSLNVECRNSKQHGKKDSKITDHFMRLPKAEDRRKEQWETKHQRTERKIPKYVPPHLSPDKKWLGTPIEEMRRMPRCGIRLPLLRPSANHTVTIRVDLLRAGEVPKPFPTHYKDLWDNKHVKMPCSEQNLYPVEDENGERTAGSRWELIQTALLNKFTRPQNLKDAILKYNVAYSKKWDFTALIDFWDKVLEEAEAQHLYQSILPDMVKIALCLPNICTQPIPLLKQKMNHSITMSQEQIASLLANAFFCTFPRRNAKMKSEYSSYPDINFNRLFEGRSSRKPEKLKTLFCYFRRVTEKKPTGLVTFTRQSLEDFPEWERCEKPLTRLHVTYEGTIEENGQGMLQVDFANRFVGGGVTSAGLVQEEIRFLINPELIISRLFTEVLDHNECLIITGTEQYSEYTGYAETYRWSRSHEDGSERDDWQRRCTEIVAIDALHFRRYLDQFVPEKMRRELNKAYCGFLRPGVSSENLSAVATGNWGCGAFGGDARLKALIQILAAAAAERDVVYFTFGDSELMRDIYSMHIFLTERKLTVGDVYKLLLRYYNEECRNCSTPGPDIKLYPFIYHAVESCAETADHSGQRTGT

Compound `Cc1cc(CN2C(=O)c3cc(S(=O)(=O)NC4(C)CC4)ccc3N3C2=NC[C@@H]3C2CC2)on1` [Example 21, (S)-1-cyclopropyl-N-(1-methylcyclopropyl)-4-((3-methylisoxazol-5-yl)methyl)-5-oxo-1,2,4,5-tetrahydroimidazo[1,2-a]quinazoline-7-sulfonamide] had a concentration for half-maximal inhibition (IC50) of 100 to 1000 nM.

With `Cc1cc(CN2C(=O)c3cc(S(=O)(=O)NC4(C)CC4)ccc3N3C2=NC[C@H]3C2CC2)on1` [Example 22, (R)-1-cyclopropyl-N-(1-methylcyclopropyl)-4-((3-methylisoxazol-5-yl)methyl)-5-oxo-1,2,4,5-tetrahydroimidazo[1,2-a]quinazoline-7-sulfonamide], the IC50 was ≤ 100 nM.

For `CC[C@H]1CN=C2N(Cc3cc(C)no3)C(=O)c3cc(S(=O)(=O)NC4(C)CC4)ccc3N21` [Example 23, (S)-1-ethyl-N-(1-methylcyclopropyl)-4-((3-methylisoxazol-5-yl)methyl)-5-oxo-1,2,4,5-tetrahydroimidazo[1,2-a]quinazoline-7-sulfonamide], the IC50 lay within 1000 to 10000 nM.

Consider `CC[C@@H]1CN=C2N(Cc3cc(C)no3)C(=O)c3cc(S(=O)(=O)NC4(C)CC4)ccc3N21` [Example 24, (R)-1-ethyl-N-(1-methylcyclopropyl)-4-((3-methylisoxazol-5-yl)methyl)-5-oxo-1,2,4,5-tetrahydroimidazo[1,2-a]quinazoline-7-sulfonamide], for which the IC50 was ≤ 100 nM.

In the case of `CCN1C(=O)c2cc(S(=O)(=O)NC3(C)CC3)ccc2N2C1=NC[C@@H]2C1CC1` [Example 25, (S)-1-cyclopropyl-4-ethyl-N-(1-methylcyclopropyl)-5-oxo-1,2,4,5-tetrahydroimidazo[1,2-a]quinazoline-7-sulfonamide], the half-inhibitory concentration (IC50) is > 10000 nM.

Compound `CCN1C(=O)c2cc(S(=O)(=O)NC3(C)CC3)ccc2N2C1=NC[C@H]2C1CC1` [Example 26, (R)-1-cyclopropyl-4-ethyl-N-(1-methylcyclopropyl)-5-oxo-1,2,4,5-tetrahydroimidazo[1,2-a]quinazoline-7-sulfonamide] gave an IC50 of 100 to 1000 nM.

Compound `C#C[C@H]1CN=C2N(CC)C(=O)c3cc(S(=O)(=O)NC4(C)CC4)ccc3N21` [Example 27, (S)-4-ethyl-1-ethynyl-N-(1-methylcyclopropyl)-5-oxo-1,2,4,5-tetrahydroimidazo[1,2-a]quinazoline-7-sulfonamide] gave an IC50 of 1000 to 10000 nM.

With `C#C[C@@H]1CN=C2N(CC)C(=O)c3cc(S(=O)(=O)NC4(C)CC4)ccc3N21` [Example 28, (R)-4-ethyl-1-ethynyl-N-(1-methylcyclopropyl)-5-oxo-1,2,4,5-tetrahydroimidazo[1,2-a]quinazoline-7-sulfonamide], the IC50 fell in the range of 100 to 1000 nM.

In the case of `CC[C@H]1CN=C2N(Cc3cnc(C)s3)C(=O)c3cc(S(=O)(=O)NC4(C)CC4)ccc3N21` [Example 29, (S)-1-ethyl-N-(1-methylcyclopropyl)-4-((2-methylthiazol-5-yl)methyl)-5-oxo-1,2,4,5-tetrahydroimidazo[1,2-a]quinazoline-7-sulfonamide], the IC50 lay within 1000 to 10000 nM.

As to `CC[C@@H]1CN=C2N(Cc3cnc(C)s3)C(=O)c3cc(S(=O)(=O)NC4(C)CC4)ccc3N21` [Example 30, (R)-1-ethyl-N-(1-methylcyclopropyl)-4-((2-methylthiazol-5-yl)methyl)-5-oxo-1,2,4,5-tetrahydroimidazo[1,2-a]quinazoline-7-sulfonamide], the IC50 is ≤ 100 nM.

In the case of `Cc1ncc(CN2C(=O)c3cc(S(=O)(=O)NC4(C)CC4)ccc3N3C2=NC[C@H]3C)s1` [Example 31, (R)-1-methyl-N-(1-methylcyclopropyl)-4-((2-methylthiazol-5-yl)methyl)-5-oxo-1,2,4,5-tetrahydroimidazo[1,2-a]quinazoline-7-sulfonamide], the half-maximal inhibitory concentration (IC50) is ≤ 100 nM.

`Cc1cc(CN2C(=O)c3cc(S(=O)(=O)NC4(C)CC4)ccc3N3C2=NC[C@H]3C)on1` [Example 32, (R)-1-methyl-N-(1-methylcyclopropyl)-4-((3-methylisoxazol-5-yl)methyl)-5-oxo-1,2,4,5-tetrahydroimidazo[1,2-a]quinazoline-7-sulfonamide]: the IC50 is ≤ 100 nM.
